pIC50: −log10 of the molar value.
Columns and labels:
Format in all cases: biochemical
Conditions in all cases: 200 μg/ml Poly Glu-Tyr (4:1), ATP 1 uM, 90 min room temperature, luminescence
[1] = biological target: T1, Recombinant JAK3 (Amino acids 781-1124) (Homo sapiens, UniProt P52333); assay: Kinase-Glo Luminescent Kinase Assay, recombinant JAK3
T1 construct: JAK3 (Amino acids 781-1124; NM_000215.3); made in house; host or cells: baculovirus expression system (Bac-to-Bac)
Outline: (§1)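 Baculovirus-expressed kinase domains were pre-incubated 5 min with compound (1% DMSO), then reacted 90 min at room temperature with 200 μg/ml poly Glu-Tyr (4:1) and 1 uM ATP in 50 mM HEPES pH 7.4, 5 mM MgCl2. Remaining ATP was read by Kinase-Glo luminescence. IC50 came from four-parameter logistic fits.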

[2] = biological target: T2, Recombinant JAK1 (Amino acids 850-1154) (Homo sapiens, UniProt P23458); assay: Kinase-Glo Luminescent Kinase Assay, recombinant JAK1
T2 construct: Recombinant JAK1 (Amino acids 850-1154; NM_002227.2); made in house; host or cells: baculovirus expression system (Bac-to-Bac)
T2 sequence (P23458 850-1154): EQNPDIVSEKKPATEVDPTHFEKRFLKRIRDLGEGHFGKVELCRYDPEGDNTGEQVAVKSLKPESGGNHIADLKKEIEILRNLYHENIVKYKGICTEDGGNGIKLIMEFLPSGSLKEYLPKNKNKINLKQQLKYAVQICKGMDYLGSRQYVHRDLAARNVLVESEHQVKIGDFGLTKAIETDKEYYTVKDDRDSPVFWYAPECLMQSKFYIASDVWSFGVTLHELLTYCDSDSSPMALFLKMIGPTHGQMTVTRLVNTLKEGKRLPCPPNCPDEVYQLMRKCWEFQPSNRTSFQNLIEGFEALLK
Outline: as §1

[3] = biological target: T3, Recombinant JAK2 (Amino acids 808-1132) (Homo sapiens, UniProt O60674); assay: Kinase-Glo Luminescent Kinase Assay, recombinant JAK2
T3 construct: JAK2 (Amino acids 808-1132; NM_004972.3); made in house; host or cells: baculovirus expression system (Bac-to-Bac)
T3 sequence (O60674 808-1132): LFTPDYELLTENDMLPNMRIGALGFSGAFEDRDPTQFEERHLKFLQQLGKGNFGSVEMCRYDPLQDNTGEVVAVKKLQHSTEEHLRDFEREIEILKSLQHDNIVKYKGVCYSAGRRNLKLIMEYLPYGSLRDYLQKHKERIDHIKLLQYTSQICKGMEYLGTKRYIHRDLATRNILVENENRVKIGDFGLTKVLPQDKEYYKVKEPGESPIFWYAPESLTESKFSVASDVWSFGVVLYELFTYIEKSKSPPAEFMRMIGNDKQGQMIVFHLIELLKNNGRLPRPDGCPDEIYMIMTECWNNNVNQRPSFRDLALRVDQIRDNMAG
Text: Recombinant JAK1 (Amino acids 850-1154; NM_002227.2), JAK2 (Amino acids 808-1132; NM_004972.3) and JAK3 (Amino acids 781-1124; NM_000215.3) used in the studies were expressed using Invitrogen's Bac-to-Bac baculovirus expression system according to manufacturer's instructions. Adenosine 5′-triphosphate was obtained from Sigma Aldrich chemicals (Cat # A7699). Poly Glu-Tyr (4:1) sodium salt was obtained from Sigma Aldrich (Cat # P0275), Kinase Glo® Luminescent Kinase assay kit was obtained from Promega (Cat # V6713) Kinase activity was assessed by Promega Kinase-Glo® Luminescent Kinase Assay kit using 200 μg/ml Poly Glu-Tyr (4:1) as substrate and ATP at 1 uM concentration. The reactions were carried out in 384 well plates in total reaction volume of 20 uL. Reaction mixtures contained 50 mM HEPES pH 7.4, 5 mM MgCl2, 1 mM DTT, 0.01% BSA, 0.01% Tween 20. Kinase was pre-incubated with compounds or 1% DMSO for 5 min before addition of substrate and ATP to check for inhibition. Kinase reactions were carried out at room temperature for 90 min. The reactions were stopped by adding 5 μl of Kinase Glo® reagent & 10 μl of reaction mixture followed by measuring luminescence. The luminescent signal is correlated with the amount of ATP present at the end of kinase reaction and is inversely correlated with the amount of kinase activity. For each data point, % inhibition is calculated based on uninhibited reaction (without compound) which is considered as 100% activity over no enzyme or substrate controls. Dose response data is then fit using a four parameter logistic equation using Graph-pad Prism 5 software to determine inhibition constant 50 (IC50).

T1 sequence (P52333 781-1124): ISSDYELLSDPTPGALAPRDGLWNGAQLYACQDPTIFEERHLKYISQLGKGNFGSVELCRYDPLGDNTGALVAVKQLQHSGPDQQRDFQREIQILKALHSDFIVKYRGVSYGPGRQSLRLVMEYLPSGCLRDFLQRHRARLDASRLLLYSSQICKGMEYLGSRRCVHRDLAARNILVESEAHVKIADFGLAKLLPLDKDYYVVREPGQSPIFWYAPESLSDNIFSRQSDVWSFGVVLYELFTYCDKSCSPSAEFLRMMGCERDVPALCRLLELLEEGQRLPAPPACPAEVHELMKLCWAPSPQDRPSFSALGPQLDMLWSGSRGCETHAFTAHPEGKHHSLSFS

| pIC50 [1] | pIC50 [2] | pIC50 [3] | SMILES |
| --- | --- | --- | --- |
| 7.70 to 9.00 | 7.70 to 9.00 | 7.70 to 9.00 | CC(C)/C(=N\C#N)N1CCC[C@@H](c2ccnc3cnc4[nH]ccc4c23)C1 [Ex. 43B, (S)(E)-[2-methyl-1-[3-(3H-pyrrolo[3,2-f][1,7]naphthyridin-9-yl)-1-piperidyl]propylidene]cyanamide] |
| < 7.70 | 7.70 to 9.00 | < 7.70 | CC(C)(C)OC(=O)N1CCCC(c2ncnc3cnc4[nH]ccc4c23)C1 (stereo not drawn) [Comp. 55, 3-(3H-3,4,6,8-Tetraaza-cyclopenta[a]naphthalen-9-yl)-piperidine-1-carboxylic acid tert-butyl ester] |
| < 7.70 | 7.70 to 9.00 | 7.70 to 9.00 | N#CCS(=O)(=O)N1CCC(c2ccnc3cnc4[nH]ccc4c23)C1 (stereo not drawn) [Ex. 16, 2-[3-(3H-pyrrolo[3,2-f][1,7]naphthyridin-9-yl)pyrrolidin-1-yl]sulfonylacetonitrile] |
| < 7.70 | < 7.70 | < 7.70 | CC(C)C(=O)N1CCCC(c2ncnc3cnc4[nH]ccc4c23)C1 (stereo not drawn) [Ex. 22, 2-Methyl-1-[3-(3H-3,4,6,8-tetraazacyclopenta[a]naphthalen-9-yl)-piperidin-1-yl]-propan-1-one] |
| < 7.70 | < 7.70 | < 7.70 | N#CCC(=O)N1CCC[C@@H](c2ncnc3cnc4[nH]ccc4c23)C1 [Ex. 23A, (R)3-Oxo-3-[3-(3H-3,4,6,8-tetraazacyclopenta[a]naphthalen-9-yl)-piperidin-1-yl]-propionitrile] |
| < 7.70 | < 7.70 | < 7.70 | CNC(=O)N1CCCC(c2ccnc3cnc4[nH]ccc4c23)C1 (stereo not drawn) [Ex. 50, N-methyl-3-(3H-pyrrolo[3,2-f][1,7]naphthyridin-9-yl)piperidine-1-carboxamide] |
| 7.70 to 9.00 | < 7.70 | < 7.70 | c1cc(N2CCC(OCC3CC3)CC2)c2c(cnc3[nH]ccc32)n1 [Ex. 60, 9-[4-(cyclopropylmethoxy)-1-piperidyl]-3H-pyrrolo[3,2-f][1,7]naphthyridine] |
| < 7.70 | < 7.70 | < 7.70 | O=C(NC1CCCN(c2ccnc3cnc4[nH]ccc4c23)C1)C1CC1 (stereo not drawn) [Ex. 74, N-[1-(3H-pyrrolo[3,2-f][1,7]naphthyridin-9-yl)-3-piperidyl] cyclopropanecarbox-amide] |
| < 7.70 | 7.70 to 9.00 | 7.70 to 9.00 | N#C/N=C(\CC(F)(F)F)N1CCCC(c2ccnc3cnc4[nH]ccc4c23)C1 (stereo not drawn) [Ex. 44, (E)-[3,3,3-trifluoro-1-[3-(3H-pyrrolo[3,2-f][1,7]naphthyridin-9-yl)-1-piperidyl]propylidene]cyanamide] |
| 7.70 to 9.00 | 7.70 to 9.00 | 7.70 to 9.00 | CCS(=O)(=O)N1CCCC(c2ccnc3cnc4[nH]ccc4c23)C1 (stereo not drawn) [Ex. 9, 9-(1-ethylsulfonyl-3-piperidyl)-3H-pyrrolo[3,2-f][1,7]naphthyridine] |
| 7.70 to 9.00 | 7.70 to 9.00 | 7.70 to 9.00 | O=C(CC(F)(F)F)N1CCC[C@H](c2ccnc3cnc4[nH]ccc4c23)C1 [Ex. 4A, (R)3,3,3-trifluoro-1-[3-(3H-pyrrolo[3,2-f][1,7]naphthyridin-9-yl)-1-piperidyl]propan-1-one] |
| < 7.70 | 7.70 to 9.00 | < 7.70 | O=C(CC1CC1)N1CCCC(c2ncnc3cnc4[nH]ccc4c23)C1 (stereo not drawn) [Ex. 25, 2-Cyclopropyl-1-[3-(3H-3,4,6,8-tetraazacyclopenta[a]naphthalen-9-yl)-piperidin-1-yl]-ethanone] |
| 7.70 to 9.00 | 7.70 to 9.00 | 7.70 to 9.00 | N#CCC(=O)N1CCCC(c2ccnc3cnc4[nH]ccc4c23)C1 (stereo not drawn) [Ex. 1, 3-oxo-3-[3-(3H-pyrrolo[3,2-f][1,7]naphthyridin-9-yl)-1-piperidyl]propanenitrile] |
| < 7.70 | < 7.70 | < 7.70 | N#CCC(=O)N1CCN(c2ccnc3cnc4[nH]ccc4c23)CC1 [Ex. 102, 3-oxo-3-[4-(3H-pyrrolo[3,2-f][1,7]naphthyridin-9-yl)piperazin-1-yl]propanenitrile] |
| < 7.70 | 7.70 to 9.00 | 7.70 to 9.00 | CC(C)CS(=O)(=O)N1CCC(c2ccnc3cnc4[nH]ccc4c23)C1 (stereo not drawn) [Ex. 18, 9-(1-isobutylsulfonylpyrrolidin-3-yl)-3H-pyrrolo[3,2-f][1,7]naphthyridine] |
| < 7.70 | 7.70 to 9.00 | 7.70 to 9.00 | CS(=O)(=O)CC(=O)N1CCCC(c2ccnc3cnc4[nH]ccc4c23)C1 (stereo not drawn) [Ex. 12, 2-methylsulfonyl-1-[3-(3H-pyrrolo[3,2-f][1,7]naphthyridin-9-yl)-1-piperidyl]ethanone] |
| < 7.70 | < 7.70 | < 7.70 | CC(C)CNC(=O)N1CCCC(c2ccnc3cnc4[nH]ccc4c23)C1 (stereo not drawn) [Ex. 49, N-isobutyl-3-(3H-pyrrolo[3,2-f][1,7]naphthyridin-9-yl)piperidine-1-carboxamide] |
| < 7.70 | < 7.70 | < 7.70 | CC(C)CS(=O)(=O)N1CCCC(c2ncnc3cnc4[nH]ccc4c23)C1 (stereo not drawn) [Ex. 30, 9-[1-(2-Methyl-propane-1-sulfonyl)-piperidin-3-yl]-3H-3,4,6,8-tetraaza-cyclopenta[a]naphthalene] |
| < 7.70 | 7.70 to 9.00 | < 7.70 | CC(C)NC(=O)C1CCN(c2ccnc3cnc4[nH]ccc4c23)C1 (stereo not drawn) [Ex. 84, N-isopropyl-1-(3H-pyrrolo[3,2-f][1,7]naphthyridin-9-yl)pyrrolidine-3-carboxamide] |
| < 7.70 | 7.70 to 9.00 | 7.70 to 9.00 | CC(C)(C)C(=O)N1CCCC(c2ncnc3cnc4[nH]ccc4c23)C1 (stereo not drawn) [Ex. 28, 2,2-Dimethyl-1-[3-(3H-3,4,6,8-tetraaza-cyclopenta[a]naphthalen-9-yl)-piperidin-1-yl]-propan-1-one] |
| < 7.70 | < 7.70 | < 7.70 | N#CCC(=O)N1CCC[C@H](c2ccnc3cnc4[nH]ccc4c23)C1 [Ex. 1A, (R)3-oxo-3-[3-(3H-pyrrolo[3,2-f][1,7]naphthyridin-9-yl)-1-piperidyl]propanenitrile] |
| 7.70 to 9.00 | 7.70 to 9.00 | 7.70 to 9.00 | c1cc(N2CCCC(OCC3CC3)C2)c2c(cnc3[nH]ccc32)n1 (stereo not drawn) [Ex. 56, 9-[3-(cyclopropylmethoxy)-1-piperidyl]-3H pyrrolo[3,2f][1,7] naphthyridine] |
| < 7.70 | < 7.70 | < 7.70 | CN(C(=O)CC(F)(F)F)C1CCCN(c2ccnc3cnc4[nH]ccc4c23)C1 (stereo not drawn) [Ex. 65, 3,3,3-trifluoro-N-methyl-N-[1-(3H-pyrrolo[3,2-f][1,7]naphthyridin-9-yl)-3-piperidyl]propanamide] |
| 7.70 to 9.00 | 7.70 to 9.00 | 7.70 to 9.00 | O=C(NCC(F)(F)F)C1CCCN(c2ccnc3cnc4[nH]ccc4c23)C1 (stereo not drawn) [Ex. 83, 1-(3H-pyrrolo[3,2-f][1,7]naphthyridin-9-yl)-N-(2,2,2-trifluoroethyl)piperidine-3-carboxamide] |
| < 7.70 | < 7.70 | < 7.70 | CC(C)NC(=O)N1CCCC(c2ccnc3cnc4[nH]ccc4c23)C1 (stereo not drawn) [Ex. 13, N-isopropyl-3-(3H-pyrrolo[3,2-f][1,7]naphthyridin-9-yl)piperidine-1-carboxamide] |
| < 7.70 | < 7.70 | < 7.70 | CC(C)/C(=N\C#N)N1CCC[C@H](c2ccnc3cnc4[nH]ccc4c23)C1 [Ex. 43A, (R)(E)-[2-methyl-1-[3-(3H-pyrrolo[3,2-f][1,7]naphthyridin-9-yl)-1-piperidyl]propylidene]cyanamide] |
| 7.70 to 9.00 | 7.70 to 9.00 | 7.70 to 9.00 | O=S(=O)(NC1CCCN(c2ccnc3cnc4[nH]ccc4c23)C1)C(F)(F)F (stereo not drawn) [Ex. 81, 1,1,1-trifluoro-N-[1-(3H-pyrrolo[3,2-f][1,7]naphthyridin-9-yl)-3-piperidyl]methane sulfonamide] |
| < 7.70 | 7.70 to 9.00 | 7.70 to 9.00 | CS(=O)(=O)N1CCC(c2ccnc3cnc4[nH]ccc4c23)C1 (stereo not drawn) [Ex. 20, 9-(1-methylsulfonylpyrrolidin-3-yl)-3H-pyrrolo[3,2-f][1,7]naphthyridine] |
